Test results as given in US20160317561A1, “USE OF D-RIBOSE FOR FATIGUED SUBJECTS” (Bioenergy Life Science, Inc., priority 2008, published 2016).

Assays:
Type in all cases: in vivo, human
[1] = Sub-maximal cardiopulmonary exercise (CPX) treadmill testing in fatigued aging subjects; conditions: for Hr to METS ratio at AT, mean change / Net Energy Expenditure at AT, mean change / O2 Uptake Slope, mean change / VE Slope, mean change / VO2 at AT, mean change: 3.0 g D-ribose bid orally
Protocol: The pilot study was performed enrolling 20 aging subjects, greater than 45 years of age, who were self-perceived as fatigued and tired as their customary daily state for at least one month, with no strenuous exercise or physical labor to account for the fatigue. No subjects had documented histories of heart/lung or metabolism/endocrine disease, as set out more fully below in the inclusion criteria. The causes of fatigue in aging subjects is unknown. It can be hypothesized that the causes are mental, since lowered cognition and feeling of wellbeing is also common in aging persons. The aforementioned studies of unhealthy persons or persons exercising strenuously found a dose of five to eight grams of D-ribose, taken two to four times per day was recommended to raise or maintain ATP levels. Lower amounts such as in this study, were not found adequate for those subjects. For the healthy, but sedentary and aging subjects for this study, it was expected that they were already at an optimum ATP level. Two doses of oral D-ribose at 1.5 grams or 3.0 grams bid were selected to test the hypothesis that raising ATP levels with D-ribose could have some benefit in improving fatigue. Each subject consumed the oral D-ribose for two weeks, dissolved in a small amount of water. Study assessments were done at baseline, and at one and two weeks during the trial. The lower dose study was continued an additional two weeks. The subjective and objective assessment parameters included: sub-maximal exercise performance, resting and sub-maximal energy expenditure, the SF-36 Quality of Life Assessment and a subjective questionnaire for evaluating fatigue.
Energy expenditure was calculated both at rest (BMR) and also at the anaerobic threshold (AT) using standard formulae incorporated into CPX-based software. Net energy expenditure was determined by subtracting resting values from those calculated at the subject's AT. In addition, the completed activity log was used to determine potential changes in cumulative (daily and weekly) energy expenditure throughout the first and second weeks while on D-ribose. Further, work efficiency was determined by calculating the reciprocal of aerobic power or the VO2 to WR ratio, as computed at the anaerobic threshold.
The formula for calculation of energy expenditure at the anaerobic threshold was based, in part, on the actual measured resting energy expenditure (RER) and VO2 at that level of exercise, knowing that a subject can sustain a steady state at the initial phase of the AT, which represents a particular phase of exercise whereby energy metabolism due to an increase in oxygen consumption resulting in a reduction in tissue oxygen perfusion shifts to an anaerobic instead of an oxidative phosphorylation. The AT interval varies from person to person depending on physical condition or training. Individuals who are not trained and relatively deconditioned have a low AT, as compared to elite endurance athletes having a high AT. At the AT, fuel mix for skeletal muscle metabolism is somewhat balanced. This point occurs in the range between 40% to 60% of the maximum VO2 attained. For example, assuming that equal amounts of fats and carbohydrates are oxidized at an RER of 0.85 just prior to AT onset, energy expenditure can be calculated using the formula VO2(L/min)×4.862 kcal/min for each liter of oxygen consumed. Likewise, if an individual was at an RER of 0.89 under steady state conditions, their absolute VO2 in L/min would be multiplied by a factor of 4.911. Net energy expenditure would be calculated subtracting the subject's resting energy expenditure (REE) or BMR. METS or net metabolic equivalents was also used to express the subject's activity level at their AT.
For this study, a ramping incremental treadmill exercise protocol was followed. […] The treadmill exercise was increased from 0 mph to 3.0 mph and the elevation increased from 0 to 12%, over the test time of six minutes. […]

[2] = SF-36 Quality of Life Questionnaire in fatigued aging subjects
Text: The SF-36 Quality of Life Questionnaire was also used. Subjects were asked to fill out a questionnaire on the normal activities that they participated in. An example of the SF-36 Quality of Life Questionnaire is presented in Appendix A. These activities included household chores, walking, yard work and whether the subject routinely climbed stairs. Additionally, subjects were asked how many days in the past week they felt good; missed work or routine chores because of fatigue; how tired they felt and their state on awakening in the morning. In order to understand what the self-perception of fatigue (described as fatigue, tiredness or loss of vitality) indicates, it is helpful to look at the questions asked in SF-36 Quality of Life questionnaire (Appendix A). The SF-36 questionnaire is applied particularly to evaluating physician-prescribed therapies, but the gender-neutral, generic, coherent and easily administered questions are useful to evaluate any discrete cohort of subjects in the categories desired. […] The first three categories as listed are directed to the subject's self-perceived status. The remaining categories are directed to the extent that status (whatever that status may be), affects the subject's functioning roles in several categories.

[3] = Fatigue questionnaire / Visual Analog Scale (VAS) for fatigue in fatigued aging subjects; conditions: for Fatigue questionnaire: lower dose (1.5 g bid)
Protocol: Subjects were monitored at baseline and during the two week treatment period for their perceived fatigue activity levels. Subjects were asked to rate on a ten point scale (1=near dead to 10=excellent) the following questions: How is your energy? (1=no energy, 10=excellent); How do you sleep? (1=no sleep, 10=8 hours without waking); How is your mental clarity? (1=“brain fog”, 10=good clarity); How bad is your pain?; How is your overall sense of well being? At weeks one and two, subjects were also asked to describe their overall rating of symptoms of fatigue as compared to their symptoms at baseline. The five point scale was; much better, somewhat better; no change; somewhat worse and much worse. The investigators selected end-points of some assessments to determine whether the subjects remained the same or improved at one and two weeks. The results were represented in a Visual Analog Scale (VAS) for fatigue. Nine subjects completed the VAS forms of subjective estimate of tiredness (Appendix B) on a scale of 1 (completely disagree) to 7 (completely agree).

[4] = Side effects of D-ribose administration in the study subjects; conditions: higher (3.0 g bid) or lower (1.5 g bid) doses
Text: D-ribose ingestion is known to have the potential to cause gastrointestinal distress, including flatulence and diarrhea, and also can lower blood glucose.

## O=C[C@H](O)[C@H](O)[C@H](O)CO [D-ribose]
[1]; Week 1 vs baseline
  Hr to METS ratio at AT, mean change: −3.00 +/− 2.83
  Net Energy Expenditure at AT, mean change: 9.32 +/− 7.67
  O2 Uptake Slope, mean change: 0.17 +/− 0.19
  VE Slope, mean change: −2.26 +/− 1.69
  VO2 at AT, mean change: 1.53 +/− 0.90
[1]; Week 2 vs baseline
  Hr to METS ratio at AT, mean change: −3.67 +/− 3.27
  Net Energy Expenditure at AT, mean change: 16.23 +/− 6.13
  O2 Uptake Slope, mean change: 0.24 +/− 0.15
  VE Slope, mean change: −2.44 +/− 2.24
  VO2 at AT, mean change: 2.13 +/− 0.78
[1]; 3.0 g bid orally, end of two weeks
  Increase in resting energy expenditure at the AT onset: 8.2%
[1]; 3.0 g bid orally, end of two weeks, p<0.0005
  Rise in net energy expenditure at the AT onset: 32%
[1]; 3.0 g bid orally, end of two weeks, p<0.001
  Increase in VO2 at the AT onset: 18%
[1]; 3.0 g bid orally, end of two weeks, p=0.012
  Increase in heart rate at the AT onset: 9.2%
[1]; 3.0 g bid orally, two weeks
  Decrease in heart rate to METS ratio: 11.7%
  Decrease in oxygen pulse indexed to inspiratory drive: 8.9%
  Decrease in ventilatory efficiency slope: 8.5%
  Increase in change in oxygen pulse times change in expired CO2 at AT: 60.8%
[1]; 3.0 g bid orally, two weeks, most subjects
  Average calorie burned from fat substrate at the AT: did not change significantly
[1]; lower dose (1.5 g bid), two weeks to four weeks
  CPX parameters (objective measures): positive trend
[2]; lower dose (1.5 g bid), four weeks
  Response to the SF-36 Questionnaire: improvement in symptoms of general health, vitality and mental outlook
[2]; results at two weeks
  SF-36 Bodily pain (interference with activities): significant improvement
  SF-36 Emotional function role: significant improvement
  SF-36 Social function role: significant improvement
[2]; results at two weeks, initially low at 40th percentile
  SF-36 Vitality: significant improvement
[2]; results at two weeks, initially near normal
  SF-36 Physical competence: slight improvement
[2]; results at two weeks, initially normal
  SF-36 General health: slight improvement
[2]; results at two weeks, initially slightly subnormal
  SF-36 Role physical function: significant improvement
[2]; two weeks, mental categories based on additional questions not in SF-36
  Social functionality, emotional wellbeing, mental health and mental competence (questionnaire): increases
[3]; continued for an additional two weeks (four weeks), FIG. 7
  Fatigue questionnaire: Continued improvement
[3]; two weeks
  Fatigue questionnaire: slight reduction in fatigue
[3]; six grams of D-ribose per day (3.0 g bid), two weeks
  Decrease in self-perceived levels of fatigue (average): 50%
[4]
  Side effects of D-ribose administration: No subjects in this study, at either the higher or the lower doses, experienced any side effects
